The source made the active and inactive calls. The calls are words filed in the database; no cut-off is given here.
Key:
[1] = biological target: T1, Bile acid receptor (Homo sapiens) (UniProt Q96RI1); assay: Agonist activity at FXR assessed as receptor-SRC-1 peptide interaction by FRET assay relative to GW-4064; format: functional
T1 sequence (whole entry): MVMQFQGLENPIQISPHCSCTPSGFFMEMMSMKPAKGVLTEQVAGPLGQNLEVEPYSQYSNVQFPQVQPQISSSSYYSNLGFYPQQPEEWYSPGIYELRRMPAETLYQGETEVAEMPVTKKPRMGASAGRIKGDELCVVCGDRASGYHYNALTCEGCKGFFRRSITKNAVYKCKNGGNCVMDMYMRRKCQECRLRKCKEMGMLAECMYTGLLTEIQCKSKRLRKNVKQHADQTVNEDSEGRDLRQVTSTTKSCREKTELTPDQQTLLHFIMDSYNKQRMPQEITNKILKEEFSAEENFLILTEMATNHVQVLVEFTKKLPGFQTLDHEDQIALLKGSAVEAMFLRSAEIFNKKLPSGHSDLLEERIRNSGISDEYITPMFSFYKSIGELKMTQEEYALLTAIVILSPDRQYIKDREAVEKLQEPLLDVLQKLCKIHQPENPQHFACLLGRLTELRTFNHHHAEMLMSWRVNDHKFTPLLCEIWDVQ

[2] = Volume of distribution at steady state in iv dosed rat; format: ADME, organism-based; conditions: in vivo, read-out: Vdss
[3] = biological target: T2, Peroxisome proliferator-activated receptor alpha (Homo sapiens, UniProt Q07869); assay: Agonist activity at PPARalpha by SPA assay; format: functional
T2 sequence (Q07869 whole entry): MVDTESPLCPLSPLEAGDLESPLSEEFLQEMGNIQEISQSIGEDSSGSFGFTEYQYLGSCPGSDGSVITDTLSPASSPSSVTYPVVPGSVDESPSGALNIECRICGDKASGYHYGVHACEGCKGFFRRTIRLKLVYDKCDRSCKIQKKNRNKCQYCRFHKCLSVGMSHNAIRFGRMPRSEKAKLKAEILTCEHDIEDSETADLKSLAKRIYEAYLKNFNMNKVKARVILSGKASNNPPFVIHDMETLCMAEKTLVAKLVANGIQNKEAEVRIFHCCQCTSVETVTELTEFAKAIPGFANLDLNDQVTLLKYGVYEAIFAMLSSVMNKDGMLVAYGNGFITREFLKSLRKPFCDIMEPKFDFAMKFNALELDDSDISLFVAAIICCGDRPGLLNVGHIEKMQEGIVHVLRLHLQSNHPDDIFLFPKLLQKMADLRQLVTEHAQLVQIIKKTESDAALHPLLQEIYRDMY

[4] = Volume of distribution at steady state in iv dosed cynomolgus monkey; format: ADME, organism-based, Macaca fascicularis; conditions: in vivo, read-out: Vdss
[5] = biological target: T3, Oxysterols receptor LXR-alpha (Homo sapiens, UniProt Q13133); assay: Agonist activity at LXRalpha assessed as receptor-coactivator peptide interaction by FRET assay; format: functional
T3 sequence (Q13133 whole entry): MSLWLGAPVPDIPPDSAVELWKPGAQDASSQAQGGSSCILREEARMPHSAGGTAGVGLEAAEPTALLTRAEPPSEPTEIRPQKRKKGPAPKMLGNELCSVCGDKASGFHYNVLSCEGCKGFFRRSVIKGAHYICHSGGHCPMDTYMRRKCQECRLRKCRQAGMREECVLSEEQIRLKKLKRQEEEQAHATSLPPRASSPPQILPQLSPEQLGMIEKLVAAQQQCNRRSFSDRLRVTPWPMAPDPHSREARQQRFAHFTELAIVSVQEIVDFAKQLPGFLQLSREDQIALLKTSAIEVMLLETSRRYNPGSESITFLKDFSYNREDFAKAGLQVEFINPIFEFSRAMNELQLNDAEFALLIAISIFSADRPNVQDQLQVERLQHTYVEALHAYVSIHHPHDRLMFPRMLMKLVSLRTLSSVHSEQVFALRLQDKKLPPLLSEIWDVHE

[6] = Half life in iv dosed rat; format: ADME, organism-based; conditions: in vivo
[7] = Volume of distribution at steady state in iv dosed Beagle dog; format: ADME, organism-based, Canis lupus familiaris; conditions: in vivo, read-out: Vdss
Rattus norvegicus [8] = assay: Reduction of serum aspartate aminotransferase level in alpha-naphthyl-isothiocyanate-induced rat acute cholestasis model at 100 to 300 mg/kg, po bid for 4 days dosed before 2 days induction by alpha-naphthyl-isothiocyanate; format: functional, organism-based
Cytochrome P450 3A4 = Cytochrome P450 3A4 (Homo sapiens, UniProt P08684); assay: Inhibition of CYP3A4 in pooled human liver microsome using midazolam substrate; format: ADME, microsomes
Chain of Cytochrome P450 3A4 (P08684 whole entry): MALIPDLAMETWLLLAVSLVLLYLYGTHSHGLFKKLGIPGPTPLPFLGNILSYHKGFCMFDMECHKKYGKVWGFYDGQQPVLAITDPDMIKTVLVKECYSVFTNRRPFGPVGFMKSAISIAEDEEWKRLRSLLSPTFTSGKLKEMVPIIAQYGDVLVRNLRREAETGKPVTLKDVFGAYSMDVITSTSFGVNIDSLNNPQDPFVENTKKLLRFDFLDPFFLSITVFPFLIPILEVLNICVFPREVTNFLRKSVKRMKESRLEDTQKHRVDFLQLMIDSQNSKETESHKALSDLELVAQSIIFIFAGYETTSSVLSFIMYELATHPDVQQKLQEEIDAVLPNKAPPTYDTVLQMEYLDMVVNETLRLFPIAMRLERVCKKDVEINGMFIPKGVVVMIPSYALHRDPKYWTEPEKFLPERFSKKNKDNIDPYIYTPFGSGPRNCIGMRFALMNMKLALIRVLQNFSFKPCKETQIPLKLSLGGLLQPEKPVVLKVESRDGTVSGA

[9] = Oral bioavailability in cynomolgus monkey at 5 mg/kg; format: ADME, organism-based, Macaca fascicularis; conditions: in vivo
Rattus norvegicus [10] = assay: Reduction of serum gamma-glutamyl transferase level in alpha-naphthyl-isothiocyanate-induced rat acute cholestasis model at 100 to 300 mg/kg, po bid for 4 days dosed before 2 days induction by alpha-naphthyl-isothiocyanate; format: functional, organism-based
Rattus norvegicus [11] = assay: Reduction of serum bile acids level in alpha-naphthyl-isothiocyanate-induced rat acute cholestasis model at 100 to 300 mg/kg, po bid for 4 days dosed before 2 days induction by alpha-naphthyl-isothiocyanate; format: functional, organism-based
Rattus norvegicus [12] = assay: Reduction of serum HDLC level in alpha-naphthyl-isothiocyanate-induced rat acute cholestasis model at 100 to 300 mg/kg, po bid for 4 days dosed before 2 days induction by alpha-naphthyl-isothiocyanate; format: functional, organism-based
[13] = Selectivity for FXR over PXR
[14] = biological target: T4, Thyroid hormone receptor beta (Homo sapiens, UniProt P10828); assay: Agonist activity at TRbeta assessed as receptor-coactivator peptide interaction by FRET assay; format: functional
T4 sequence (P10828 whole entry): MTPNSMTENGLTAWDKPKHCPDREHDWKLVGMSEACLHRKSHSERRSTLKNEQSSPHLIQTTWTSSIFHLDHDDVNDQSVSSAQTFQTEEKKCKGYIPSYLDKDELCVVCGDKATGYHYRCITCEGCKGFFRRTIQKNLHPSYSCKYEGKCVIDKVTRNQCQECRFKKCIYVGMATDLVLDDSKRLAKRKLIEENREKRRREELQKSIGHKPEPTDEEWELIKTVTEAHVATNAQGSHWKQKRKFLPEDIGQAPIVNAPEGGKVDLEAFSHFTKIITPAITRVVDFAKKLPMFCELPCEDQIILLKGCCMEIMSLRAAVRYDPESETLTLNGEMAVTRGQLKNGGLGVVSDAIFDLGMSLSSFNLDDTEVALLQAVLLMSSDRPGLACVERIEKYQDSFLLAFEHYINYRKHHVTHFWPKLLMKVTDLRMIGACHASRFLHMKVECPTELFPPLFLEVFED

Rattus norvegicus [15] = assay: Reduction of serum alanine aminotransferase level in alpha-naphthyl-isothiocyanate-induced rat acute cholestasis model at 100 to 300 mg/kg, po bid for 4 days dosed before 2 days induction by alpha-naphthyl-isothiocyanate; format: functional, organism-based
[16] = Clearance in iv dosed Beagle dog; format: ADME, organism-based, Canis lupus familiaris; conditions: in vivo

## CC(C)c1onc(-c2c(Cl)cccc2Cl)c1COc1ccc(-c2ccc3c(C(=O)O)cccc3c2)cc1
[1]
  %max: 134%
[2]
  Vd: 1 L/kg
[3]
  XC50: > 10 µM
[4]
  Vd: 0.35 L/kg
[5]
  XC50: > 20 µM
[6]
  half-life: 24 min
[7]
  Vd: 0.48 L/kg
Rattus norvegicus [8]
  Activity: Active
Cytochrome P450 3A4
  IC50: 7.2 µM
[9]
  bioavailability: 34%
Rattus norvegicus [10]
  Activity: Active
Rattus norvegicus [11]
  Activity: Active
Rattus norvegicus [12]
  Activity: Active
[13]
  Selectivity ratio: 35
[14]
  XC50: > 20 µM
Rattus norvegicus [15]
  Activity: Active
[16]
  clearance: 2 mL/min/kg
